{
  "source": "patent US20220363870A1",
  "about": "“Stain Resistant Additive” (Arxada AG, priority 2019, published 2022)",
  "system": "4 algal species",
  "assay": "Resistance of Paint Films to Algal Defacement (Modified ASTM Method D5589)",
  "format": "cell-based",
  "set-up": "key to 4 wk Rating / 10 wk Rating / 14 wk Rating: 0 showing no growth; 4 showing the highest growth",
  "details": "for Average 4 week rating: paint of Example 1, scale 0-4",
  "protocol": "Procedure (Modified ASTM Method D5589): • 1. Sample substrates are coated with the corresponding paint samples containing the targeted amount of additive and antimicrobial. • 2. Depending upon the test conditions, samples are subjected to UV, leaching conditions, standard conditions, or a combination thereof. Leaching was performed for up to 7 days and with or without up to 600 hr of QUV in a weathering chamber. • 3. 4 algal species are used and inoculated every 2 weeks, including up to 18 weeks. Fresh plates were replaced at weeks 4, 10, 14, and 18. • 4. Ratings are scored on a range of 0-4, with 0 showing no growth and 4 showing the highest growth.",
  "note": "Where “and” joins values, the source holds several entries; their conditions need not be identical. Equal entries are not always repeated.",
  "data": [
    {"compound": "CCCCCCCCn1sccc1=O", "note": "[N-octylisothiazolinone]", "values": [
      {"measurement": "Average 4 week rating", "setting": "Biocide 350 ppm + Additive 1,000 ppm", "value": 3.7},
      {"measurement": "Average 4 week rating", "setting": "Biocide 350 ppm + Additive 3,000 ppm", "value": 1.7},
      {"measurement": "Average 4 week rating", "setting": "Biocide 350 ppm, no additive", "value": 2.7},
      {"measurement": "Average 4 week rating", "setting": "Biocide 700 ppm + Additive 1,000 ppm", "value": 0.7},
      {"measurement": "Average 4 week rating", "setting": "Biocide 700 ppm + Additive 3,000 ppm", "value": 0.0},
      {"measurement": "Average 4 week rating", "setting": "Biocide 700 ppm, no additive", "value": 1.0},
      {"measurement": "Average 4 week rating", "setting": "Biocide 1,050 ppm + Additive 1,000 ppm", "value": 0.0},
      {"measurement": "Average 4 week rating", "setting": "Biocide 1,050 ppm + Additive 3,000 ppm", "value": 0.0},
      {"measurement": "Average 4 week rating", "setting": "Biocide 1,050 ppm, no additive", "value": 1.3}
    ]},
    {"compound": "Zinc pyrithione", "values": [
      {"measurement": "4 wk Rating", "setting": "Conc. 0.7% in paint of Example 1, algal growth rating 0-4, 4 wk", "value": 0},
      {"measurement": "10 wk Rating", "setting": "Conc. 0.7% in paint of Example 1, algal growth rating 0-4, 10 wk", "value": 0},
      {"measurement": "14 wk Rating", "setting": "Conc. 0.7% in paint of Example 1, algal growth rating 0-4, 14 wk", "value": 0},
      {"measurement": "4 wk ZOI", "setting": "Conc. 0.7% in paint of Example 1, zone of inhibition, 4 wk", "value": 15},
      {"measurement": "18 wk ZOI", "setting": "Conc. 0.7% in paint of Example 1, zone of inhibition, 18 wk", "value": 0}
    ]},
    {"compound": "zinc di(ethyl 4,4,4-trifluoroacetoacetate) dihydrate [Additive]", "values": [
      {"measurement": "Average 4 week rating", "setting": "Additive 1,000 ppm, no biocide", "value": 3.7},
      {"measurement": "Average 4 week rating", "setting": "Additive 3,000 ppm, no biocide", "value": 2.0},
      {"measurement": "18 wk Rating", "setting": "Conc. 0.3% in paint of Example 1, algal growth rating 0-4, 18 wk, dihydrate", "value": "3 and 2"},
      {"measurement": "4 wk ZOI", "setting": "Conc. 0.3% in paint of Example 1, zone of inhibition, 4 wk", "value": 0},
      {"measurement": "10 wk ZOI", "setting": "Conc. 0.3% in paint of Example 1, zone of inhibition, 10 wk", "value": 0},
      {"measurement": "14 wk ZOI", "setting": "Conc. 0.3% in paint of Example 1, zone of inhibition, 14 wk", "value": 0},
      {"measurement": "18 wk ZOI", "setting": "Conc. 0.3% in paint of Example 1, zone of inhibition, 18 wk", "value": 0}
    ]}
  ]
}
